Source: paper PMC13022382, “A high-affinity split-HaloTag for live-cell protein labeling” (Nature Communications, 2026)
Residues, ends and D or L forms follow the SMILES beside them. *: point of attachment. Biotin = O=C1N[C@H]2[C@H](CS[C@H]2CCCCC(=O)*)N1

What was measured:
cpHaloΔ = test system: cpHaloΔ; design: method as in 2 sources, one per row (each row's own in cited_ref): ref 4 (Huppertz et al., Science 2024) ||| ref PhD thesis of Jonas Wilhelm; settings: CA-TMR labeling kinetics, TEVp-cleaved cpHalo∆; 500 nM cpHaloΔ protein, 100 nM CA-TMR (EC50 >1 μM); ref 4 (Huppertz et al., Science 2024); read-out: EC50 for the parental cpHalo∆; cited from earlier work
cpHaloΔ3-SiR = test: Bio-layer interferometry binding kinetics, biotin-Hpep with cpHaloΔ3-SiR; settings: BLI, 25 °C, 1:1 global fit; for Kd: biotin-Hpep 50 nM immobilised, cpHalo∆3-SiR 300–2 nM; for koff / kon: biotin-Hpep, cpHalo∆3-SiR
Experimental: (§1) After incubation, Hpep1 was removed by IMAC purification on a gravity flow column and buffer was exchanged to activity buffer using Amicon Ultra-15 Centrifugal Filter Unit. The protein labeling was verified by SDS-PAGE, comparing Coomassie blue staining and in-gel fluorescence (Supplementary Fig. 19). Protein labeling and Hpep1 removal were further verified by HRMS as previously explained.
(§2) Bio-layer interferometry (BLI) analysis was performed in a 96-well plate using an Octet® R4 system (Sartorius) with an acquisition rate for standard kinetics of 5.0 Hz at 25 °C. […] The raw data was analyzed using Octet® Analysis Studio (Sartorius). For data correction, response curves were baseline-aligned by subtracting the average signal of the baseline step and Savitzky–Golay filtering was used to remove high-frequency noise from the data.

cpHaloΔ3-TMR = test: Bio-layer interferometry binding kinetics, biotin-Hpep with cpHaloΔ3-TMR; settings: BLI, 25 °C, 1:1 global fit; for Kd: biotin-Hpep 50 nM immobilised, cpHalo∆3-TMR 300–2 nM; for koff / kon: biotin-Hpep, cpHalo∆3-TMR
Experimental: as §1, §2

cpHaloΔ, sequence (P0A3G2 4-141 L47V/S58T/D78G/Y87F/L88M/C128F): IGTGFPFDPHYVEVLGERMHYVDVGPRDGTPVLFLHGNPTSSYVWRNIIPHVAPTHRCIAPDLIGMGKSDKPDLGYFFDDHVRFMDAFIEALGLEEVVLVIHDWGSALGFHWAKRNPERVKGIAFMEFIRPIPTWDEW
cpHaloΔ, sequence (P0A3G2 156-290 E160K/A167V/A172T/K175M/C176G/K195N/A224E/N227D/E257K/T264A/H272N/Y273L): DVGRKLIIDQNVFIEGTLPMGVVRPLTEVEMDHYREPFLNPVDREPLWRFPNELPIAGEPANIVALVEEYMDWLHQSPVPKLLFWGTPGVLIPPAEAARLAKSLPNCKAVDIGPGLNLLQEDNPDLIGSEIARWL

Compound: WRETFQLFRT [Hpep6, previously reported split-HaloTag peptide, […]]
- EC50 (cpHaloΔ): 2.39 µM

Compound: WKEEVIKAFKLFRD [Hpep4, previously reported split-HaloTag peptide, […]]
- EC50 (cpHaloΔ): 21 µM

Compound: CSCC[C@H](NC(=O)[C@H](CCC(=O)O)NC(=O)[C@H](CCCNC(=N)N)NC(=O)[C@H](Cc1c[nH]c2ccccc12)NC(=O)[C@H](CC(=O)O)NC(=O)[C@H](CCCNC(=N)N)NC(=O)[C@H](CCCCN)NC(=O)[C@H](CO)NC(=O)CCCC[C@@H]1SC[C@@H]2NC(=O)N[C@@H]21)C(=O)N[C@@H](Cc1ccccc1)C(=O)N[C@@H](CCCNC(=N)N)C(=O)N[C@@H](CC(C)C)C(=O)N[C@@H](Cc1ccccc1)C(=O)N[C@@H](CCCNC(=N)N)C(=O)N[C@H](C(=O)O)[C@@H](C)O [biotin-Hpep11] (Biotin-SKRDWREMFRLFRT-OH)
- Kd (cpHaloΔ3-SiR): 4.27 nM
- koff (cpHaloΔ3-SiR): 0.000214 s⁻¹
- kon (cpHaloΔ3-SiR): 50000 M⁻¹ s⁻¹
- Kd (cpHaloΔ3-TMR): 10.6 nM
- koff (cpHaloΔ3-TMR): 0.000687 s⁻¹
- kon (cpHaloΔ3-TMR): 64900 M⁻¹ s⁻¹

Compound: WREEVRKAFKLFRQ [Hpep5, previously reported split-HaloTag peptide, […]]
- EC50 (cpHaloΔ): 10.7 µM

Compound: AREMFQAFRT [Hpep2, previously reported split-HaloTag peptide, […]]
- EC50 (cpHaloΔ): 1120 µM

Compound: ARETFQAFRT [Hpep1, previously reported split-HaloTag peptide, […]]
- EC50 (cpHaloΔ): 2980 µM

Compound: SKRDAREMFQAFRT [Hpep3, previously reported split-HaloTag peptide, […]]
- EC50 (cpHaloΔ): 149 µM

Compound: CSCC[C@H](NC(=O)[C@H](CCC(=O)O)NC(=O)[C@H](CCCNC(=N)N)NC(=O)[C@H](Cc1c[nH]c2ccccc12)NC(=O)[C@H](CO)NC(=O)[C@H](Cc1c[nH]c2ccccc12)NC(=O)CNC(=O)[C@H](CCCNC(=N)N)NC(=O)CCCC[C@@H]1SC[C@@H]2NC(=O)N[C@@H]21)C(=O)N[C@@H](Cc1ccccc1)C(=O)N[C@@H](CCCNC(=N)N)C(=O)N[C@@H](CC(C)C)C(=O)N[C@@H](Cc1ccccc1)C(=O)N[C@@H](CCCNC(=N)N)C(=O)N[C@H](C(=O)O)[C@@H](C)O [biotin-Hpep9] (Biotin-RGWSWREMFRLFRT-OH)
- Kd (cpHaloΔ3-SiR): 18.8 nM
- koff (cpHaloΔ3-SiR): 0.00149 s⁻¹
- kon (cpHaloΔ3-SiR): 78900 M⁻¹ s⁻¹
- Kd (cpHaloΔ3-TMR): 4.86 nM
- koff (cpHaloΔ3-TMR): 0.00104 s⁻¹
- kon (cpHaloΔ3-TMR): 214000 M⁻¹ s⁻¹
